row,SMILES,melting point
1,"CCC(CC)N(Cc1ccc(C#N)nc1)S(=O)(=O)c1ccc(F)cc1 [Example 73, N-((6-Cyanopyridin-3-yl)methyl)-4-fluoro-N-(pentan-3-yl)benzenesulfonamide]",118 to 120 °C
2,"COC(=O)c1ccc(CN([C@@H](C)c2ccccc2)S(=O)(=O)c2ccc(Cl)cc2)cc1 [Example 12, (S)-Methyl 4-((4-chloro-N-(1-phenylethyl)phenylsulfonamido)methyl)benzoate]",105 to 106 °C
3,"COC(=O)c1ccc(CN(C(CO)CO)S(=O)(=O)c2ccc(Cl)s2)cc1 [Example 42, Methyl 4-((5-chloro-N-(1,3-dihydroxypropan-2-yl)thiophene-2-sulfonamido)methyl)benzoate]",134 to 135 °C
4,"CC[C@@H](c1ccccc1)N(Cc1ccc(S(C)(=O)=O)cc1)S(=O)(=O)c1ccc(Cl)cc1 [Example 2, (S)-4-Chloro-N-(4-(methylsulfonyl)benzyl)-N-(1phenylpropyl)benzenesulfonamide]",61 to 63 °C
5,"O=C(O)c1ccc(CN([C@@H](CO)c2ccccc2)S(=O)(=O)c2ccc(Cl)cc2)cc1 [Example 51, (R)-4-((4-Chloro-N-(2-hydroxy-1-phenylethyl)phenylsulfonamido)methyl)benzoic acid]",85 to 87 °C
6,"CCC(CC)N(Cc1ccc(C#N)cc1)S(=O)(=O)c1ccc(Cl)cc1 [Example 33, 4-Chloro-N-(4-cyanobenzyl)-N-(pentan-3-yl)benzenesulfonamide]",123 to 125 °C
7,"CCC(c1ccccc1)N(Cc1ccc(C(=O)OC)cc1)S(=O)(=O)c1ccc(Cl)cc1 (centres unmarked) [Example 25, Methyl 4-((4-chloro-N-(1-phenylpropyl)phenylsulfonamido)methyl)benzoate]",105 to 107 °C
8,"CC[C@@H](c1ccccc1)N(Cc1ccc(C(=O)NCC(=O)O)cc1)S(=O)(=O)c1ccc(Cl)cc1 [Example 64, (S)-2-(4-((4-Chloro-N-(1-phenylpropyl)phenylsulfonamido)methyl)benzamido)acetic acid]",136 to 139 °C
9,"CCC(CC)N(Cc1ccc(C(=O)OC)cc1)S(=O)(=O)c1ccc(Cl)cc1 [Example 40, Methyl 4-((4-chloro-N-(pentan-3-yl)phenylsulfonamido)methyl)benzoate]",95 to 97 °C
10,"CC[C@@H](c1ccccc1)N(Cc1ccc(C(=O)OC)cc1)S(=O)(=O)c1ccc(Cl)cc1 [Example 3, (S)-Methyl 4-((4-chloro-N-(1-phenylpropyl)phenylsulfonamido)methyl)benzoate]",108 to 110 °C
11,"CCC(c1ccc(C(F)(F)F)cc1)N(Cc1ccc(C(=O)O)cc1)S(=O)(=O)c1ccc(Cl)cc1 (centres unmarked) [Example 54, 4-((4-Chloro-N-(1-(4-(trifluoromethyl)phenyl)propyl)phenylsulfonamido)methyl)benzoic acid]",108 to 110 °C
12,"CCC(c1ccc(F)cc1)N(Cc1ccc(C(=O)OC)cc1)S(=O)(=O)c1ccc(Cl)cc1 (centres unmarked) [Example 30, Methyl 4-((4-chloro-N-(1-(4-fluorophenyl)propyl)phenylsulfonamido)methyl)benzoate]",95 to 97 °C
13,"CC[C@@H](c1ccccc1)N(Cc1ccc(C(=O)OC)cc1)S(=O)(=O)c1ccc(F)cc1 [Example 21, (S)-Methyl 4-((4-fluoro-N-(1-phenylpropyl)phenylsulfonamido)methyl)benzoate]",107 to 109 °C
14,"CC[C@@H](c1ccccc1)N(Cc1ccc(C(=O)OC)cc1)S(=O)(=O)c1ccc(C(F)(F)F)cc1 [Example 18, (S)-Methyl 4-((N-(1-phenylpropyl)-4-(trifluoromethyl)phenylsulfonamido)methyl)benzoate]",70 to 72 °C
15,"COC(=O)c1ccc(CN(C(C)C)S(=O)(=O)c2ccc(Cl)cc2)cc1 [Example 44, Methyl 4-((4-chloro-N-isopropylphenylsulfonamido)methyl)benzoate]",110 to 112 °C
16,"CCC(c1ccccn1)N(Cc1ccc(C(=O)OC)cc1)S(=O)(=O)c1ccc(F)cc1 (centres unmarked) [Example 26, Methyl 4-((4-fluoro-N-(1-(pyridin-2-yl)propyl)phenylsulfonamido)methyl)benzoate]",82 to 84 °C
17,"CCC(CC)N(Cc1ccc(C(=O)OC)cn1)S(=O)(=O)c1ccc(F)cc1 [Example 34, Methyl 6-((4-fluoro-N-(pentan-3-yl)phenylsulfonamido)methyl)nicotinate]",117 to 119 °C
18,"O=C(O)c1ccc(CN(C(CO)CO)S(=O)(=O)c2ccc(Cl)s2)cc1 [Example 53, 4-((5-Chloro-N-(1,3-dihydroxypropan-2-yl)thiophene-2-sulfonamido)methyl)benzoic acid]",163 to 165 °C
19,"CCC(CC)N(Cc1ccc(C(=O)OC)cc1)S(=O)(=O)c1ccc(F)cc1 [Example 32, Methyl 4-((4-fluoro-N-(pentan-3-yl)phenylsulfonamido)methyl)benzoate]",78 to 80 °C
20,COC(=O)c1ccc(CN(C(CF)CF)S(=O)(=O)c2ccc(F)cc2)cc1 [Example 41],103 to 105 °C
21,"COC(=O)c1ccc(CN([C@@H](CO)c2ccccc2)S(=O)(=O)c2ccc(Cl)cc2)cc1 [Example 7, (R)-Methyl 4-((4-chloro-N-(2-hydroxy-1-phenylethyl)phenylsulfonamido)methyl)benzoate]",104 to 106 °C
22,"CC(C)N(Cc1ccc(Cl)c(Cl)c1)S(=O)(=O)c1cc2ccccc2s1 [Example 48, N-(3,4-Dichlorobenzyl)-N-isopropylbenzo[b]thiophene-2-sulfonamide]",133 to 135 °C
23,"CC[C@@H](c1ccccc1)N(Cc1ccc(C(=O)O)cc1OC)S(=O)(=O)c1ccc(Cl)cc1 [Example 23, (S)-4-((4-Chloro-N-(1-phenylpropyl)phenylsulfonamido)methyl)-3-methoxybenzoic acid]",176 to 178 °C
24,"COC(=O)c1ccc(CN([C@@H](CO)Cc2ccccc2)S(=O)(=O)c2ccc(Cl)cc2)cc1 [Example 94, (R)-Methyl 4-((4-chloro-N-(1-hydroxy-3-phenylpropan-2-yl)phenylsulfonamido)-methyl)benzoate]",128 to 130 °C

# Second part, the compound after the results:
row,melting point,SMILES
1,112 to 114 °C,"C[C@H](O)[C@H](CO)N(Cc1ccc(C#N)cc1F)S(=O)(=O)c1ccc(Cl)cc1 [Example 131, 4-Chloro-N-(4-cyano-2-fluorobenzyl)-N-((2S,3S)-1,3-dihydroxybutan-2-yl)-benzenesulfonamide]"
2,124 to 126 °C,"C[C@H](O)[C@H](CO)N(Cc1ccc(C#N)cc1)S(=O)(=O)c1ccc(Cl)cc1 [Example 132, 4-Chloro-N-(4-cyanobenzyl)-N-((2S,3S)-1,3-dihydroxybutan-2-yl)-benzene-sulfonamide]"
3,163 to 165 °C,"C[C@@H](c1ccc(Cl)cc1)N(Cc1ccc(C(=O)O)cc1)S(=O)(=O)c1ccc(Cl)cc1 [Example 141, (S)-4-((4-Chloro-N-(1-(4-chlorophenyl)ethyl)phenylsulfonamido)methyl)benzoic acid]"
4,101 to 103 °C,"CC[C@@H](c1ccc(C(F)(F)F)cc1)N(Cc1ccc(C(=O)O)cc1)S(=O)(=O)c1ccc(Cl)cc1 [Example 125, (S)-4-((4-Chloro-N-(1-(4-(trifluoromethyl)phenyl)propyl)phenylsulfonamido)methyl)benzoic acid]"
5,132 to 133 °C,"CC[C@@H](c1ccc(C#N)cc1)N(Cc1ccc(C(=O)O)cc1)S(=O)(=O)c1ccc(Cl)cc1 [Example 103, (S)-4-((4-Chloro-N-(1-(4-cyanophenyl)propyl)phenylsulfonamido)methyl)benzoic acid]"
6,60 to 62 °C,"COC(=O)c1cc(CN([C@@H](CO)c2ccccc2)S(=O)(=O)c2ccc(Cl)cc2)ccc1OC [Example 133, (R)-Methyl 5-((4-chloro-N-(2-hydroxy-1-phenylethyl)phenylsulfonamido)methyl)-2-methoxybenzoate]"
7,120 to 121 °C,"CC[C@H](c1ccc(C(F)(F)F)cc1)N(Cc1ccc(C(=O)OC)cc1)S(=O)(=O)c1ccc(Cl)cc1 [Example 123, (R)-Methyl 4-((4-chloro-N-(1-(4-(trifluoromethyl)phenyl)propyl)phenylsulfonamido)methyl)benzoate]"
8,86 to 88 °C,"O=C(O)c1ccc(CN([C@H](CO)c2ccccc2)S(=O)(=O)c2ccc(Cl)cc2)cc1 (hydrate or solvate) [Example 95, (S)-4-((4-Chloro-N-(2-hydroxy-1-phenylethyl)phenylsulfonamido)methyl)benzoic acid]"
9,67 to 69 °C,"COC(=O)c1ccc(CN([C@@H](C)c2ccc(Cl)cc2)S(=O)(=O)c2ccc(Cl)cc2)cc1 [Example 141, (S)-Methyl 4-((4-chloro-N-(1-(4-chlorophenyl)ethyl)phenylsulfonamido)methyl)benzoate]"
10,120 to 121 °C,"CC[C@@H](c1ccccc1)N(Cc1ccc(C(=O)N2CCC[C@@H]2CO)cc1)S(=O)(=O)c1ccc(Cl)cc1 [Example 104, 4-Chloro-N-(4-((R)-2-(hydroxymethyl)pyrrolidine-1-carbonyl)benzyl)-N-((S)-1-phenylpropyl)benzenesulfonamide]"
11,182 to 184 °C,"C[C@H](O)[C@H](CO)N(Cc1ccc(C(=O)O)cc1)S(=O)(=O)c1ccc(Cl)cc1 [Example 118, 4-((4-Chloro-N-((2S,3S)-1,3-dihydroxybutan-2-yl)phenylsulfonamido)methyl)benzoic acid]"
12,105 to 107 °C,"CC[C@H](c1ccc(C(F)(F)F)cc1)N(Cc1ccc(C(=O)O)cc1)S(=O)(=O)c1ccc(Cl)cc1 [Example 126, (R)-4-((4-Chloro-N-(1-(4-(trifluoromethyl)phenyl)propyl)phenylsulfonamido)methyl)benzoic acid]"
13,98 to 99 °C,"CC[C@@H](c1ccccc1)N(Cc1ccc(C(=O)OC)cc1)S(=O)(=O)c1ccc(Cl)c(Cl)c1 [Example 114, (S)-Methyl 4-((3,4-dichloro-N-(1-phenylpropyl)phenylsulfonamido)methyl)benzoate]"
14,103 to 105 °C,"CC[C@@H](c1ccccc1)N(Cc1ccc(C(=O)OC)cc1)S(=O)(=O)c1ccc(F)c(F)c1 [Example 115, (S)-Methyl 4-((3,4-difluoro-N-(1-phenylpropyl)phenylsulfonamido)methyl)benzoate]"

# From US20130310384A1, “Sulfonamide-Containing Compounds” (THE BRIGHAM AND WOMEN'S HOSPITAL, INC., priority 2010, published 2013)
